Consider five compounds from paper doi:10.1101/466938v1, “The distinct biochemical property enables thymidylate kinase as a drug target and participates in pyrimidine drug sensitivity in Candida albicans” (biorxiv, 2018).

≈ marks a conversion by molar mass, not a printed value. Like-named read-outs stand apart in the source and are kept apart here.

Assay in all cases: microbe, parasite or virus in culture
Common to all, as to design: species or system Candida albicans strains; Sensititre YeastOne SYO-09 colorimetric microdilution, visual MIC at >=50% growth inhibition
(In general: Broth dilution looks for growth in wells or tubes with falling amounts of substance.)

Experiment [1] deals with T1, Candida albicans F2015b076.
T1 construct: F2015b076
Particulars: F2015B076, 24 h. On the procedure:
(§1) Minimum inhibitory concentrations (MICs) of 5-FUrd were determined by broth microdilution method in accordance with the guidelines in Clinical and Laboratory Standards Institute (CLSI) document M27[25], using RPMI 1640 medium containing 0.165 M MOPs (pH 7.0) and 0.2% glucose, an inoculum of 10^3 cells/well, and incubated for 24 hr at 35°C, followed by OD600 reading by TECAN SPARK plate reader. The MIC50 of 5-FUrd was determined as the lowest dosage of 5-FUrd causing 50% inhibition of the growth by using the concentrations in the range of 0.004-2μg/mL. MICs of […] of human use (5-FC; four azoles: posaconazole, voriconazole, itraconazole, fluconazole; and three echinocandins: anidulafungin, caspofungin and micafungin) were determined by the microdilution colorimetric Sensititre YeastOne SYO-09 panel (TREK Diagnostic Systems, Cleveland, OH, USA); in accordance with the manufacturer’s instructions. MICs values were determined visually, after 24 hours of incubation, as the lowest concentration of drug that caused complete inhibition (amphotericin B) or a significant diminution (≥50% inhibition; flucytosine, azoles and echinocandins) of growth relative to that of the growth control. Table 2. Minimum inhibitory concentrations of 5-FUrd and antifungal drugs of clinical used for pathogenic and drug-resistant isolates of Candida albicans^a

In experiment [2] the test system is T2, Candida albicans F2017g023.
T2 construct: F2017g023
The note with it: F2017G023, 24 h. As to the method: as §1

Experiment [3] has as its system T3, Candida albicans F2016a067.
T3 construct: F2016a067
Particulars: F2016A067, 24 h. As to the method:
as §1

The test system of a further experiment is T4, Candida albicans SC5314.
T4 construct: SC5314
The note with it: SC5314, 24 h. On the procedure:
as §1

Experiment [4] has as its system T5, Candida albicans F2016c087.
T5 construct: F2016c087
Particulars: F2016C087, 24 h. As to the method:
as §1

The subject of experiment [5] is T6, Candida albicans F2014f090.
T6 construct: F2014f090
Particulars: F2014F090, 24 h. As to the method:
as §1

The test system of experiment [6] is T7, Candida albicans F2016g048.
T7 construct: F2016g048
The note with it: F2016G048, 24 h. On the procedure:
as §1

Experiment [7] relates to T8, Candida albicans F2016f024.
T8 construct: F2016f024
The note with it: F2016F024, 24 h. As to the method:
as §1

For experiment [8], the system named is T9, Candida albicans ATCC90028.
T9 construct: ATCC 90028
Particulars: ATCC90028, 24 h. As to the method:
as §1

For experiment [9], the system named is T10, Candida albicans F2014a093.
T10 construct: F2014a093
Particulars: F2014A093, 24 h. As to the method: as §1

Experiment [10] relates to T11, Candida albicans F2015f019.
T11 construct: F2015f019
Particulars: F2015F019, 24 h. As to the method: as §1

Experiment [11] deals with T12, Candida albicans F2016e085.
T12 construct: F2016e085
The note with it: F2016E085, 24 h. As to the method: as §1

Setting [12] is: read-out: Itraconazole MIC (µg/mL).
Where [13] appears, read: read-out: Fluconazole MIC (µg/mL).
Where [14] appears, read: read-out: Posaconazole MIC (µg/mL).
[15] abbreviates: read-out: Voriconazole MIC (µg/mL).

As for `CCC(C)n1ncn(-c2ccc(N3CCN(c4ccc(OC[C@H]5CO[C@](Cn6cncn6)(c6ccc(Cl)cc6Cl)O5)cc4)CC3)cc2)c1=O` (mixture of isomers) [Itraconazole, itraconazole], the MIC in [1] (setting [12]) is 0.5 µg/mL; in experiment [2] (setting [12]) it was 0.06 µg/mL; in experiment [3] (setting [12]), greater than 16 µg/mL; with Candida albicans SC5314 (setting [12]), 0.06 µg/mL; in experiment [4] (setting [12]) it was 0.12 µg/mL; in [5] (setting [12]) it was greater than 16 µg/mL. Besides, the MIC is 1 µg/mL in experiment [6] (setting [12]); 0.12 µg/mL in [7] (setting [12]); 0.06 µg/mL in experiment [8] (setting [12]); greater than 16 µg/mL in experiment [9] (setting [12]); 0.12 µg/mL in experiment [10] (setting [12]); 0.03 µg/mL in [11] (setting [12]).

As to `Nc1[nH]c(=O)ncc1F` [5-FC, 5-flucytosine], the MIC in experiment [1] (read-out: 5-FC MIC (µg/mL)) was 0.03 µg/mL (≈ 0.232 µM); in experiment [2] (read-out: 5-FC MIC (µg/mL)), greater than 64 µg/mL; in experiment [3] (read-out: 5-FC MIC (µg/mL)) it was 0.03 µg/mL (≈ 0.232 µM); with Candida albicans SC5314 (read-out: 5-FC MIC (µg/mL)) it was 0.06 µg/mL (≈ 0.465 µM); in experiment [4] (read-out: 5-FC MIC (µg/mL)), greater than 64 µg/mL; in experiment [5] (read-out: 5-FC MIC (µg/mL)) it was 0.12 µg/mL (≈ 0.93 µM). The MIC stood at 0.03 µg/mL (≈ 0.232 µM) in experiment [6] (read-out: 5-FC MIC (µg/mL)); 0.03 µg/mL (≈ 0.232 µM) in experiment [7] (read-out: 5-FC MIC (µg/mL)); 0.5 µg/mL (≈ 3.87 µM) in [8] (read-out: 5-FC MIC (µg/mL)); 0.03 µg/mL (≈ 0.232 µM) in experiment [9] (read-out: 5-FC MIC (µg/mL)); 0.03 µg/mL (≈ 0.232 µM) in experiment [10] (read-out: 5-FC MIC (µg/mL)); 8 µg/mL (≈ 62 µM) in [11] (read-out: 5-FC MIC (µg/mL)).

As to `OC(Cn1cncn1)(Cn1cncn1)c1ccc(F)cc1F` [Fluconazole, fluconazole], the MIC worked out at 256 µg/mL (≈ 836 µM) in experiment [1] (setting [13]); 0.5 µg/mL (≈ 1.63 µM) in experiment [2] (setting [13]); 64 µg/mL (≈ 209 µM) in experiment [3] (setting [13]); 0.5 µg/mL (≈ 1.63 µM) with Candida albicans SC5314 (setting [13]); 0.5 µg/mL (≈ 1.63 µM) in [4] (setting [13]); 2 µg/mL (≈ 6.53 µM) in experiment [5] (setting [13]). The MIC is 256 µg/mL (≈ 836 µM) in [6] (setting [13]); 8 µg/mL (≈ 26.1 µM) in [7] (setting [13]); 1 µg/mL (≈ 3.27 µM) in experiment [8] (setting [13]); greater than 256 µg/mL in [9] (setting [13]); 4 µg/mL (≈ 13.1 µM) in [10] (setting [13]); 0.06 µg/mL (≈ 0.196 µM) in experiment [11] (setting [13]).

Turning to `CC[C@@H]([C@H](C)O)n1ncn(-c2ccc(N3CCN(c4ccc(OC[C@@H]5CO[C@@](Cn6cncn6)(c6ccc(F)cc6F)C5)cc4)CC3)cc2)c1=O` [Posaconazole, posaconazole], the MIC is 1 µg/mL (≈ 1.43 µM) in experiment [1] (setting [14]); 0.03 µg/mL (≈ 0.0428 µM) in [2] (setting [14]); 0.03 µg/mL (≈ 0.0428 µM) in [3] (setting [14]); 0.015 µg/mL (≈ 0.0214 µM) with Candida albicans SC5314 (setting [14]); 0.06 µg/mL (≈ 0.0856 µM) in [4] (setting [14]); greater than 8 µg/mL in experiment [5] (setting [14]). In addition, the MIC in [6] (setting [14]) was 1 µg/mL (≈ 1.43 µM); in experiment [7] (setting [14]), 0.25 µg/mL (≈ 0.357 µM); in [8] (setting [14]), 0.06 µg/mL (≈ 0.0856 µM); in experiment [9] (setting [14]), greater than 8 µg/mL; in [10] (setting [14]) it was 0.12 µg/mL (≈ 0.171 µM); in experiment [11] (setting [14]) it was 0.015 µg/mL (≈ 0.0214 µM).

Turning to `C[C@@H](c1ncncc1F)[C@](O)(Cn1cncn1)c1ccc(F)cc1F` [Voriconazole, voriconazole], the MIC in experiment [1] (setting [15]) was greater than 8 µg/mL; in experiment [2] (setting [15]), 0.004 µg/mL (≈ 0.0115 µM); in [3] (setting [15]), 0.03 µg/mL (≈ 0.0859 µM); in the experiment with Candida albicans SC5314 (setting [15]), 0.015 µg/mL (≈ 0.0429 µM); in experiment [4] (setting [15]) it was 0.015 µg/mL (≈ 0.0429 µM); in experiment [5] (setting [15]), 0.25 µg/mL (≈ 0.716 µM). The MIC in experiment [6] (setting [15]) was greater than 8 µg/mL; in experiment [7] (setting [15]), 0.5 µg/mL (≈ 1.43 µM); in experiment [8] (setting [15]) it was 0.015 µg/mL (≈ 0.0429 µM); in experiment [9] (setting [15]), greater than 8 µg/mL; in experiment [10] (setting [15]), 0.06 µg/mL (≈ 0.172 µM); in experiment [11] (setting [15]), 0.004 µg/mL (≈ 0.0115 µM).
